Reference: PubChem BioAssay AID1845228

Details: pampa; 60.0 min; 50.0 µM

**Q.** With `N=c1c2c(-c3ccccc3)cn(Cc3ccc(Br)cc3)c2ncn1CCCN1CCN(c2ccccc2)CC1` as the compound, how does the Papp read?
**A.** The Papp was 151 ×10⁻⁶ cm/s.

**Q.** For `CC1=C(C(=O)O)N2C(=O)[C@@H](N)[C@H]2SC1`, which Papp is on record?
**A.** The Papp was under 1 ×10⁻⁶ cm/s.

**Q.** For `CC(=O)Nc1c2sscc-2n(C)c1=O`, which Papp is on record?
**A.** Its Papp is 16 ×10⁻⁶ cm/s.

**Q.** With `COc1ccc(Cn2c(-c3ccccc3)c(-c3ccccc3)c3c(=N)n(CCCCO)cnc32)cc1` as the compound, how does the Papp read?
**A.** The Papp was 279 ×10⁻⁶ cm/s.

**Q.** Which Papp does the source give for `CN(C)CCN(C)C(=O)c1ccc(-c2ncc3cnc(-c4cccc(F)c4)cn23)cc1` here?
**A.** The Papp was 90 ×10⁻⁶ cm/s.

**Q.** With `C[C@@H]1COCCN1c1cc(C2(S(C)(=N)=O)CC2)nc(-c2ccnc3[nH]ccc23)n1` (stereo not given in full) as the compound, how does the Papp read?
**A.** Its Papp is 33 ×10⁻⁶ cm/s.

**Q.** With `Cn1cc(C2=C(c3coc4ccccc34)C(=O)NC2=O)c2cc(Br)ccc21` as the compound, how does the Papp read?
**A.** The Papp was 3 ×10⁻⁶ cm/s.

**Q.** For `CNS(=O)(=O)Cc1ccc2[nH]cc(CCN(C)C)c2c1`, which Papp is on record?
**A.** The Papp was under 1 ×10⁻⁶ cm/s.

**Q.** With `N=c1c2c(-c3ccccc3)c(-c3ccccc3)n(Cc3ccccc3)c2ncn1C1CCN(Cc2ccccc2)CC1` as the compound, how does the Papp read?
**A.** The Papp was 233 ×10⁻⁶ cm/s.

**Q.** For `CC[C@@]1(O)C(=O)OCc2c1cc1n(c2=O)Cc2cc3c(CN(C)C)c(O)ccc3nc2-1`, which Papp is on record?
**A.** Its Papp is 1.37 ×10⁻⁶ cm/s.

**Q.** Which Papp does the source give for `NC(=O)OC[C@@H]1[C@H](NC(=O)/C(=N\OCC(=O)O)c2csc(N)n2)C(=O)N1S(=O)(=O)O` here?
**A.** The Papp was under 1 ×10⁻⁶ cm/s.

**Q.** For `CCN(CC)CC(=O)Oc1ccc(NC(C)=O)cc1`, which Papp is on record?
**A.** The Papp was 7 ×10⁻⁶ cm/s.

**Q.** Which Papp does the source give for `N=c1c2c(-c3ccccc3)c(-c3ccccc3)n(Cc3ccccc3)c2ncn1[C@H](CO)Cc1ccccc1` here?
**A.** The Papp was under 1 ×10⁻⁶ cm/s.

**Q.** Which Papp does the source give for `C=CCN1CC[C@]23c4c5ccc(O)c4O[C@H]2[C@@H](OCCOCCOCCOCCOCCOCCOCCOC)CC[C@@]3(O)[C@H]1C5` here?
**A.** Its Papp is under 1 ×10⁻⁶ cm/s.

**Q.** Which Papp does the source give for `N=c1c2c(-c3ccccc3)c(-c3ccccc3)n(CCc3ccccc3)c2ncn1C1CCN(Cc2ccccc2)CC1` here?
**A.** The Papp was 14 ×10⁻⁶ cm/s.

**Q.** With `COCCNCCCn1c(C(=O)CF)c(-c2ccc(C)cc2)c2c(N)ncnc21` as the compound, how does the Papp read?
**A.** The Papp was 20 ×10⁻⁶ cm/s.

**Q.** With `OCCCCC#Cc1cncc(OC[C@@H]2CCN2)c1` as the compound, how does the Papp read?
**A.** The Papp was under 1 ×10⁻⁶ cm/s.

**Q.** For `C[N+](C)([O-])CCNc1ccc(NCC[N+](C)(C)[O-])c2c1C(=O)c1c(O)ccc(O)c1C2=O`, which Papp is on record?
**A.** The Papp was 40 ×10⁻⁶ cm/s.

**Q.** Which Papp does the source give for `Cn1nnnc1Sc1ncnc2scc(-c3cccc(C(F)(F)F)c3)c12` here?
**A.** The Papp was 296 ×10⁻⁶ cm/s.

**Q.** For `Cc1ccc(-n2c(C)cc(-c3nnc4n3CCCCC4)c2C)cc1`, which Papp is on record?
**A.** Its Papp is 192 ×10⁻⁶ cm/s.

**Q.** With `Nc1nc(/C(=C/CC(=O)O)C(=O)N[C@@H]2C(=O)N3C(C(=O)O)=CCS[C@H]23)cs1` as the compound, how does the Papp read?
**A.** The Papp was 18 ×10⁻⁶ cm/s.

**Q.** Which Papp does the source give for `O=C(NCc1cnccn1)c1ccc(-c2ncc3cnc(-c4cccc(F)c4)cn23)cc1` here?
**A.** Its Papp is 94 ×10⁻⁶ cm/s.

**Q.** Which Papp does the source give for `CCOC(CCCn1cnc2c(c(-c3ccccc3)c(-c3ccccc3)n2CCc2ccccc2)c1=N)OCC` here?
**A.** Its Papp is under 1 ×10⁻⁶ cm/s.

**Q.** For `N=c1c2c(-c3ccccc3)c(-c3ccccc3)n(CCc3ccccc3)c2ncn1CCCO`, which Papp is on record?
**A.** The Papp was 66 ×10⁻⁶ cm/s.

**Q.** Which Papp does the source give for `CC(C)[C@]12O[C@H]1[C@@H]1O[C@]13[C@]1(O[C@H]1C[C@H]1C4=C(CC[C@@]13C)C(=O)OC4)[C@@H]2O` here?
**A.** Its Papp is under 1 ×10⁻⁶ cm/s.
